# Biological target: T1, Human Recombinant Matriptase 2 (Homo sapiens, UniProt Q8IU80)
# T1 construct: made in house
# T1 sequence (Q8IU80 1-811): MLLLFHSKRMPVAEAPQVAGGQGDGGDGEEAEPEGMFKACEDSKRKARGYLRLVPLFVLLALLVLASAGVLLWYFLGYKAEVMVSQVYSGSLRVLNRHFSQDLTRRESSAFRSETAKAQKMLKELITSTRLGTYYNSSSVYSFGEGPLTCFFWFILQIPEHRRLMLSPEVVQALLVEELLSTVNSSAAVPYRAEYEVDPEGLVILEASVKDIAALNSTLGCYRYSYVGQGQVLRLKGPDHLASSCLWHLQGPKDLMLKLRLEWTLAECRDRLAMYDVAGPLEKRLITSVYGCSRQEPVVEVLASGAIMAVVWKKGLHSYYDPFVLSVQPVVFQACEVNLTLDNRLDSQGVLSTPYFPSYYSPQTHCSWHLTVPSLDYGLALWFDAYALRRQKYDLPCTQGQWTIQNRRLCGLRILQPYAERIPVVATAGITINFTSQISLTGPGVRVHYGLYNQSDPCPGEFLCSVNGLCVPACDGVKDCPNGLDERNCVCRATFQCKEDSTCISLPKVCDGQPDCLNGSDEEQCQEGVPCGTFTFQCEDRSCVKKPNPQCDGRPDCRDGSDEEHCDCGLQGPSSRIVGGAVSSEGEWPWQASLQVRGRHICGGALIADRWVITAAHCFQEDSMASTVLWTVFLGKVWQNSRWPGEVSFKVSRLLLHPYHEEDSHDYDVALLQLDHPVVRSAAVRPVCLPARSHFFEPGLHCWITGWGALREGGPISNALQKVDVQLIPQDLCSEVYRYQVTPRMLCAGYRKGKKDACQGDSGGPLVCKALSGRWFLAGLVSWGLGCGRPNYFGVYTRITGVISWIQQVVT
# Assay: Matriptase 2 inhibition, fluorescence based assay (Method I)
# Type: biochemical
# Conditions: Table A; Ki of Matriptase-2; read-out: Mat-2 Ki
# Summary of the method: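 In-house recombinant enzyme (3.5 nM), preincubated 30 min with compound, then Boc-Gln-Ala-Arg-AMC substrate (62 μM) in 50 mM Tris pH 7.5, 150 mM NaCl, 0.01% gelatin, 1% DMSO, 25 °C. Fluorescence (Ex 360/Em 480 nm) read 60 min after substrate; IC50 from variable-slope sigmoidal fit of % inhibition.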
row,Structure (SMILES),Ki [nM]
1,"CC(C)C(=O)O[C@H](C)OC(=O)c1cc2ccc(CN)nc2n1Cc1cc(NS(=O)(=O)Cc2ccccc2)cc2ccccc12 (racemic) [Compound 118, 1-[6-(aminomethyl)-1-{[3-(phenylmethanesul-fonamido)naphthalen-1-yl]methyl}-1H-pyrrolo-[2,3-b]pyridine-2-car-bonyloxylethyl 2-meth-ylpropanoate]",500 to 3000
2,"NCc1ccc2cc(C(=O)OCCn3cnnn3)n(Cc3cc(NS(=O)(=O)Cc4ccccc4)cc4ccccc34)c2n1 [Compound 86, 2-(1H-1,2,3,4-tetrazol-1-yl)ethyl 6-(amino-methyl)-1-{[3-(phenyl-methanesulfonamido)-naphthalen-1-yl]methyl}-1H-pyrrolo[2,3-b]pyr-idine-2-carboxylate]",100 to 500
3,"NCc1ccc2cc(C(=O)OCC3CC3)n(Cc3cc(NS(=O)(=O)Cc4ccccc4)cc4ccccc34)c2n1 [Compound 120, cyclopropylmethyl 6-(aminomethyl)-1-{[3-(phenylmethanesulfon-amido)naphthalen-1-yl]-methyl}-1H-pyrrolo[2,3-b]pyridine-2-carboxylate]",500 to 3000
4,"NCc1ccc2cc(C(=O)NCCN3CCOCC3)n(Cc3cc(NS(=O)(=O)Cc4ccsc4)cc4ccccc34)c2n1 [Compound 173, 6-(aminomethyl)-N-[2-(morpholin-4-yl)ethyl]-1-({3-[(thiophen-3-yl)-methanesulfonamido]-naphthalen-1-yl}meth-yl)-1H-pyrrolo[2,3-b]-pyridine-2-carboxamide]",≤ 100
5,"CN1CCC(COC(=O)c2cc3ccc(CN)nc3n2Cc2cc(NS(=O)(=O)C(F)(F)c3ccccc3)cc3ccccc23)CC1 [Compound 42, (1-methylpiperidin-4-yl)methyl 6-(aminometh-yl)-1-({3-[difluoro(phen-yl)methanesulfonamido]-naphthalen-1-yl}meth-yl)-1H-pyrrolo[2,3-b]-pyridine-2-carboxylate]",≤ 100
6,"CC(C)CN1CCC(COC(=O)c2cc3ccc(CN)nc3n2Cc2cc(NS(=O)(=O)Cc3ccccc3)cc3ccccc23)CC1 [Compound 43, [1-(2-methylpropyl)-piperidin-4-yl]methyl 6-(aminomethyl)-1-{[3-(phenylmethanesulfon-amido)naphthalen-1-yl]-methyl}-1H-pyrrolo[2,3-b]pyridine-2-carboxylate]",≤ 100
7,"Cc1cccc(C)c1CS(=O)(=O)Nc1cc(Cn2c(C(=O)OCCCN3CCOCC3)cc3ccc(CN)nc32)c2ccccc2c1 [Compound 190, 3-(morpholin-4-yl)prop-yl 6-(aminomethyl)-1-({3-[(2,6-dimethylphen-yl)methanesulfonamido]-naphthalen-1-yl}meth-yl)-1H-pyrrolo[2,3-b]-pyridine-2-carboxylate]",≤ 100
8,"CC(CCN(C)C)S(=O)(=O)Nc1cc(Cn2c(C(=O)O)cc3ccc(CN)nc32)c2ccccc2c1 (racemic) [Compound 8, 6-(aminomethyl)-1-((3-((3-(dimethylamino)-1-methylpropyl)sulfonamido)naphthalen-1-yl)methyl)-1H-pyrrolo[2,3-b]pyridine-2-carboxylic acid]",100 to 500
9,"NCc1ccc2cc(C(=O)OCCN3CCS(=O)(=O)CC3)n(Cc3cc(NS(=O)(=O)Cc4ccccc4)cc4ccccc34)c2n1 [Compound 77, 2-(1,1-dioxo-1-thio-morpholin-4-yl)ethyl 6-(aminomethyl)-1-{[3-(phenylmethanesulfon-amido)naphthalen-1-yl]-methyl}-1H-pyrrolo[2,3-b]pyridine-2-carboxylate]",≤ 100
10,"Cn1nccc1COC(=O)c1cc2ccc(CN)nc2n1Cc1cc(NS(=O)(=O)Cc2ccccc2)cc2ccccc12 [Compound 68, (1-methyl-1H-pyrazol-5-yl)methyl 6-(amino-methyl)-1-{[3-(phenyl-methanesulfonamido)-naphthalen-1-yl]meth-yl}-1H-pyrrolo[2,3-b]-pyridine-2-carboxylate]",≤ 100

# Same assay, conditions: Table A; Ki of Matriptase-2 given as class symbols; read-out: Mat-2 Ki
row,Structure (SMILES),Ki [nM]
1,"NCc1ccc2cc(C(=O)Nc3nnn[nH]3)n(Cc3cc(NS(=O)(=O)Cc4ccccc4)cc4ccccc34)c2c1 [Compound 372, 6-(aminomethyl)-1-((3-((phenylmethyl)sulfonamido)naphthalen-1-yl)methyl)-N-(1H-tetrazol-5-yl)-1H-indole-2-carboxamide]",100 to 500
2,"NCc1ccc2cc(C(=O)O)n(Cc3cc(NS(=O)(=O)CCn4ccnn4)cc4ccccc34)c2n1 [Compound 228, 6-(aminomethyl)-1-({3-[2-(1H-1,2,3-triazol-1-yl)ethanesulfonamido]-naphthalen-1-yl}meth-yl)-1H-pyrrolo[2,3-b]-pyridine-2-carboxylic acid]",100 to 500
3,"CC(C)(C)n1cncc1COC(=O)c1cc2ccc(CN)cc2n1Cc1cc(NS(=O)(=O)Cc2ccccc2)cc2ccccc12 [Compound 386, (1-tert-butyl-1H-imid-azol-5-yl)methyl 6-(aminomethyl)-1-{[3-(phenylmethanesulfon-amido)naphthalen-1-yl]-methyl}-1H-indole-2-carboxylate]",100 to 500
4,"C[C@@H]1OCCC1S(=O)(=O)Nc1cc(Cn2c(C(=O)O)cc3ccc(CN)nc32)c2ccccc2c1 (stereo partly drawn) [Compound 272, 6-(aminomethyl)-1-({3-[(2S)-2-methyloxolane-3-sulfonamido]naph-thalen-1-yl}methyl)-1H-pyrrolo[2,3-b]pyridine-2-carboxylic acid]",500 to 3000
5,"CCOC(=O)c1cc2ccc(CN)nc2n1Cc1cc(NS(=O)(=O)CC[C@@H]2CCCN2)cc2ccccc12 [Compound 269, ethyl 6-(aminomethyl)-1-[(3-{2-[(2S)-pyrrolidin-2-yl]ethanesulfonamido}-naphthalen-1-yl)methyl]-1H-pyrrolo[2,3-b]pyr-idine-2-carboxylate]",500 to 3000
6,"CNCCOC(=O)c1cc2ccc(CN)nc2n1Cc1cc(NS(=O)(=O)CC[C@@H]2CCCN2)cc2ccccc12 [Compound 283, 2-(methylamino)ethyl 6-(aminomethyl)-1-[(3-{2-[(2S)-pyrrolidin-2-yl]-ethanesulfonamido}-naphthalen-1-yl)methyl]-1H-pyrrolo[2,3-b]pyr-idine-2-carboxylate]",500 to 3000
7,NCc1ccc2cc(-c3ncn[nH]3)n(Cc3cc(NS(=O)(=O)Cc4ccccc4)cc4ccccc34)c2n1 [Compound 352],≤ 100
8,"CC(C)(C)n1cncc1COC(=O)c1cc2ccc(CN)cc2n1Cc1cc(NS(=O)(=O)Cc2ccsc2)cc2ccccc12 [Compound 385, (1-tert-butyl-1H-imid-azol-5-yl)methyl 6-(aminomethyl)-1-({3-[(thiophen-3-yl)methane-sulfonamido]naphthalen-1-yl}methyl)-1H-indole-2-carboxylate]",100 to 500
9,"Cc1cc(CS(=O)(=O)Nc2cc(Cn3c(C(=O)O)cc4ccc(CN)nc43)c3ccccc3c2)no1 [Compound 250, 6-(aminomethyl)-1-({3-[(5-methyl-1,2-oxazol-3-yl)methanesulfon-amido]naphthalen-1-yl}-methyl)-1H-pyrrolo[2,3-b]pyridine-2-carboxylic acid]",500 to 3000
10,"CCOC(=O)c1cc2ccc(CN)nc2n1Cc1cc(NS(=O)(=O)Cc2c(C)cccc2C)cc2ccccc12 [Compound 202, ethyl 6-(aminomethyl)-1-({3-[(2,6-dimethyl-phenyl)methanesulfon-amido]naphthalen-1-yl}-methyl)-1H-pyrrolo[2,3-b]pyridine-2-carboxylate]",500 to 3000

# Same assay, conditions: Table B; Human Recombinant Matriptase 2, 3.5 nM enzyme, 62 μM substrate, 30 mins preincubation; read-out: Mean Ki
row,Structure (SMILES),Ki [nM]
1,CN1CCC(COC(=O)c2cc3ccc(CN)nc3n2Cc2cccn3ccnc23)CC1 [Compound 2.39],> 3000
2,CN(C)c1ccc(COC(=O)c2cc3ccc(CN)nc3n2Cc2cc(NS(=O)(=O)Cc3ccccc3)cc3ccccc23)cc1 [Compound 2.27],100 to 500
